# “Also recorded” adds a separate entry of the source. Read-outs that look alike come from different tables or passages of the source.
# Legend:
# 5-HT6 = 5-HT6 (Homo sapiens, UniProt P50406); assay: G protein dissociation and cAMP accumulation second messenger assays; assay type: cell-based; parameters: expressed in transfected cells; host or cells: HEK293T
# 5-HT5A receptor = molecular target: T1, 5-HT5A receptor (Homo sapiens, UniProt P47898); assay: G protein dissociation assay; assay type: cell-based
# T1 construct: expressed in transfected cells; host or cells: HEK293T
# T1 sequence (P47898 whole entry): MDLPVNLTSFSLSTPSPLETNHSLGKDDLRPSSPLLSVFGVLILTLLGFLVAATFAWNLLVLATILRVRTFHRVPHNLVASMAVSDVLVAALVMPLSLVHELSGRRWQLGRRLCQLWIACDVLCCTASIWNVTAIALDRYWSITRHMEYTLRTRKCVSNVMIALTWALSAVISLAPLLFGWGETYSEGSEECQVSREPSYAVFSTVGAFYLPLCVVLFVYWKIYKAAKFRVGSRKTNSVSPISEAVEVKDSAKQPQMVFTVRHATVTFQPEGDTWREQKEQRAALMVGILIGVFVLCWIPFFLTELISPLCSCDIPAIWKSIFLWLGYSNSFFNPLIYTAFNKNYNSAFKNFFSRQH
# D1 dopamine receptor = D1 dopamine receptor (Homo sapiens, UniProt P21728); assay: BRET-based G protein dissociation assay; assay type: cell-based
# Chain of D1 dopamine receptor (P21728 whole entry): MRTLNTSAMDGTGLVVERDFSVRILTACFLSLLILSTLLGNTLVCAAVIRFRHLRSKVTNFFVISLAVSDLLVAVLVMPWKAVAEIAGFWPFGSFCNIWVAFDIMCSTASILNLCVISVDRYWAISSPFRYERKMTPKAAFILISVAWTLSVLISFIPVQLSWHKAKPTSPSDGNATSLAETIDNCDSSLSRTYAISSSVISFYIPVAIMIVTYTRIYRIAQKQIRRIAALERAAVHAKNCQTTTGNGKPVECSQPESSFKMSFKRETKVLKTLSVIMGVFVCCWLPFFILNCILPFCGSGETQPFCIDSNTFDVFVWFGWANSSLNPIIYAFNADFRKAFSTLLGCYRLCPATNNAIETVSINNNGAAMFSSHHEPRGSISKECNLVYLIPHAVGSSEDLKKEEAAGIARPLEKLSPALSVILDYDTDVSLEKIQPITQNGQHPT
# [1] = molecular target: H4 histaminergic receptor (Homo sapiens, UniProt Q9H3N8); assay: BRET-based G protein dissociation assay; assay type: cell-based
# Chain of H4 histaminergic receptor (Q9H3N8 whole entry): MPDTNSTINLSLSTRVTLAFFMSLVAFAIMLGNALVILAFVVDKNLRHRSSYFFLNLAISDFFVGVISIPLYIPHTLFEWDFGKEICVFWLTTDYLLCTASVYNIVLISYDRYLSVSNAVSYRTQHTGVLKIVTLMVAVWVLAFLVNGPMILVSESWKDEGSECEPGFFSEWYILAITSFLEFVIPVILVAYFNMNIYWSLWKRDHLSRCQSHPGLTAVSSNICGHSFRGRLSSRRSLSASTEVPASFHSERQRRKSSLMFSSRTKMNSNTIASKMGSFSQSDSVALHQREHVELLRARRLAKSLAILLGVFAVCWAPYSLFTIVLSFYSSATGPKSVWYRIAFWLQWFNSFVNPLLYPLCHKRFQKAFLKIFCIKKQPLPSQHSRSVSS
# [2] = molecular target: CHRM5 (M5 muscarinic receptor) (Homo sapiens, UniProt P08912); assay: BRET-based G protein dissociation assay; assay type: cell-based
# Chain of CHRM5 (M5 muscarinic receptor) (P08912 whole entry): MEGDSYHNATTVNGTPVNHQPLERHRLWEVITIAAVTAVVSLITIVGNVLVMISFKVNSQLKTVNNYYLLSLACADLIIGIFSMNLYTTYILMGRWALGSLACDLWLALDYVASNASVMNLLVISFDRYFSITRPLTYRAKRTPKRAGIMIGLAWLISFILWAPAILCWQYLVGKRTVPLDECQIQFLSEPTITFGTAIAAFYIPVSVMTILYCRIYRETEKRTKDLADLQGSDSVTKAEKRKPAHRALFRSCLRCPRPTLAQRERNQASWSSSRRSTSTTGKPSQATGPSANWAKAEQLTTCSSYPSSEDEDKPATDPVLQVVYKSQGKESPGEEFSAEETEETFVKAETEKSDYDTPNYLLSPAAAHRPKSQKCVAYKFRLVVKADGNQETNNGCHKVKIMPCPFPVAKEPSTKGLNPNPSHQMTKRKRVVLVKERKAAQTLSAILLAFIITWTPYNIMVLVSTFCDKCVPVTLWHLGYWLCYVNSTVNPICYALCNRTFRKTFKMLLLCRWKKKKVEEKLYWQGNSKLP
# 5-HT7 receptor = molecular target: T2, 5-HT7 receptor (Homo sapiens, UniProt P34969); assay: G protein dissociation and cAMP accumulation second messenger assays; assay type: cell-based
# T2 construct: expressed in transfected cells; host or cells: HEK293T
# T2 sequence (P34969 1-445 isoform P34969-2): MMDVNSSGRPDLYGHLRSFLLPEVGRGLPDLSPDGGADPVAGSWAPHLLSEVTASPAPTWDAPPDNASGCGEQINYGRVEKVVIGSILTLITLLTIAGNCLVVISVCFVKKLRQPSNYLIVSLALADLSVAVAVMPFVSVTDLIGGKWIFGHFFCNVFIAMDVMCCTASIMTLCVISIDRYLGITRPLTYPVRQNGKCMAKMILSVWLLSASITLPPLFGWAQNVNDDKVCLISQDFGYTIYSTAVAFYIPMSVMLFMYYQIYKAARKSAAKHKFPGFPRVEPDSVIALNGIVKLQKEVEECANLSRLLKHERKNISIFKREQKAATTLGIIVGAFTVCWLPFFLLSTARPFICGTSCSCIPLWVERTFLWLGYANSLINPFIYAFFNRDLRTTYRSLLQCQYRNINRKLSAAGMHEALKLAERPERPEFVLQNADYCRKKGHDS
# [3] = molecular target: CHRM1 (M1 muscarinic receptor) (Homo sapiens, UniProt P11229); assay: BRET-based G protein dissociation assay; assay type: cell-based
# Chain of CHRM1 (M1 muscarinic receptor) (P11229 whole entry): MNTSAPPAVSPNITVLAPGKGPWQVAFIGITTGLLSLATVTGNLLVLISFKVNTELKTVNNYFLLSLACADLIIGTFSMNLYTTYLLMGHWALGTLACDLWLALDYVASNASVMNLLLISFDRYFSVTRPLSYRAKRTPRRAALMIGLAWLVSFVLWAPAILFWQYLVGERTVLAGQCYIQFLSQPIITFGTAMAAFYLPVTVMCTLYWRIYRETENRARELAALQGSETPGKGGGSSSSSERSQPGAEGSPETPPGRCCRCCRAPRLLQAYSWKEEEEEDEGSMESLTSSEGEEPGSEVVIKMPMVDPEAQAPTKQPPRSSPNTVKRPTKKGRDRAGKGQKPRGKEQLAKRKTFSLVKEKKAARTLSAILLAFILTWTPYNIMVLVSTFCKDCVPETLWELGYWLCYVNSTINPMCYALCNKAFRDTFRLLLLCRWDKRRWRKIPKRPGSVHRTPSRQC
# D3 dopamine receptor = D3 dopamine receptor (Homo sapiens, UniProt P35462); assay: BRET-based G protein dissociation assay; assay type: cell-based
# Chain of D3 dopamine receptor (P35462 whole entry): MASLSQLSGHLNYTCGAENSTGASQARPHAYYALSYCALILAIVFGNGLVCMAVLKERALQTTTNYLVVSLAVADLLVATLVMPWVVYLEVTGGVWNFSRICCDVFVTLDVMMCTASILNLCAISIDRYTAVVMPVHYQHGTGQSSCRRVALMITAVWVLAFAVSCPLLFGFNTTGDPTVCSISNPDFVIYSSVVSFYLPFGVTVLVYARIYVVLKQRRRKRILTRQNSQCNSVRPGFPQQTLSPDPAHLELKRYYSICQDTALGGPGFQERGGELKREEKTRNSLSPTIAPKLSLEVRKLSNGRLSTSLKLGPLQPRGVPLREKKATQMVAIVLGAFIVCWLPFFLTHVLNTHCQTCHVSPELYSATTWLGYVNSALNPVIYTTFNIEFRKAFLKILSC
# 5-HT4 receptor = molecular target: T3, 5-HT4 receptor (Homo sapiens, UniProt Q13639); assay: G protein dissociation assay; assay type: cell-based; conditions: FIG. 15
# T3 construct: expressed in transfected cells; host or cells: HEK293T
# T3 sequence (Q13639 whole entry): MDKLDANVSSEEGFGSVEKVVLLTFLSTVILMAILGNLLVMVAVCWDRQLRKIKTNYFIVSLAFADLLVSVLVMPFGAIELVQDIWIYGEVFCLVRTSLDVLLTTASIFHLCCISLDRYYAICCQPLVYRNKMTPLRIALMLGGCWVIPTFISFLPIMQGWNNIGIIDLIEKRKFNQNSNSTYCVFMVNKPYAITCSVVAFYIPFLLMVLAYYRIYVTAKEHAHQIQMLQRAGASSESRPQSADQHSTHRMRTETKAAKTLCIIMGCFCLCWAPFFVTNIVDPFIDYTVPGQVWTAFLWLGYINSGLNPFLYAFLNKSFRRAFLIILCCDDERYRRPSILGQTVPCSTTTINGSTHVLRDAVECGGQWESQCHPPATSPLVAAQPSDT
# 5-HT2A receptor = 5-HT2A receptor (Homo sapiens, UniProt P28223)
# Chain of 5-HT2A receptor (P28223 whole entry): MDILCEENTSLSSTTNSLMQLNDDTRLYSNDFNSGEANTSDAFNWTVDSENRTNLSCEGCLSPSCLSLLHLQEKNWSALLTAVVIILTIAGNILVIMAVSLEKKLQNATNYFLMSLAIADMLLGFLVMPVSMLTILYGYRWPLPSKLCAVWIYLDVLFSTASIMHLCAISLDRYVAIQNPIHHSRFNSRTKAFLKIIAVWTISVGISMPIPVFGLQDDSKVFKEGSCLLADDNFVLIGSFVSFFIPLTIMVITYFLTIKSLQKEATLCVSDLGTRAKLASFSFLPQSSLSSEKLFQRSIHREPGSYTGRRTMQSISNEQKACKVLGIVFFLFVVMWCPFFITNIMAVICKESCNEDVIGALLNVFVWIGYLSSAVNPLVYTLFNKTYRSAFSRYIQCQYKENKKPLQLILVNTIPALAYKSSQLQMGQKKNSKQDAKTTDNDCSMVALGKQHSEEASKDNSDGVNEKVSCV
# [4] = molecular target: T4, Beta 2 adrenergic receptor (Homo sapiens, UniProt P07550); assay: Radioligand binding, cell membrane homogenates
# T4 construct: expressed in transfected cells; host or cells: HEK-293
# Protocol: (§1) Neuro-receptor binding and functional effects of the “E559 polymorph” was examined by analyzing binding affinity [Ki (nM)], functional agonist activity [EC50 (nM)], and functional antagonist activity [IC50 (nM)] against a panel of key receptors in neurophysiological disorders. Binding and functional assays were performed at “E559 polymorph” concentrations of 0.0003, 0.003, 0.01, 0.03, 0.1, 0.3, 1, and 10 μM. In binding assays, cell membrane homogenates, expressing each receptor target, were incubated with the corresponding radio-ligand in absence or presence of several concentration of the “E559 polymorph” compound. The measurement of binding affinity of the “E559 polymorph” is represented in TABLE XIII by Ki (nM) which was calculated as percent inhibition of the binding of a radioactively labeled reference ligand at each receptor. In functional assays the HEK-293 cells expressing each receptor target were suspended in buffer and distribute in microplates and incubated for 30 minutes at room temperature or 37° C. in the presence of buffer alone (basal control), the reference agonist or antagonist, or the “E559 polymorph. Following incubation, the cells were lysed and the appropriate fluorescent probe (Ca2+ flux, cAMP, or IP1) were added for 60 minutes to measure the fluorescence transfer at the appropriate wavelength using a microplate reader. The cellular agonist effect (EC50) was calculated as a percent of control response to a known reference agonist and the cellular antagonist effect (IC50) was calculated as a percent inhibition of control reference agonist response for each receptor.
# [5] = molecular target: T5, Alpha 2B adrenergic receptor (Homo sapiens, UniProt P18089); assay: Radioligand binding, cell membrane homogenates
# T5 construct: expressed in transfected cells; host or cells: HEK-293
# T5 sequence (P18089 1-450): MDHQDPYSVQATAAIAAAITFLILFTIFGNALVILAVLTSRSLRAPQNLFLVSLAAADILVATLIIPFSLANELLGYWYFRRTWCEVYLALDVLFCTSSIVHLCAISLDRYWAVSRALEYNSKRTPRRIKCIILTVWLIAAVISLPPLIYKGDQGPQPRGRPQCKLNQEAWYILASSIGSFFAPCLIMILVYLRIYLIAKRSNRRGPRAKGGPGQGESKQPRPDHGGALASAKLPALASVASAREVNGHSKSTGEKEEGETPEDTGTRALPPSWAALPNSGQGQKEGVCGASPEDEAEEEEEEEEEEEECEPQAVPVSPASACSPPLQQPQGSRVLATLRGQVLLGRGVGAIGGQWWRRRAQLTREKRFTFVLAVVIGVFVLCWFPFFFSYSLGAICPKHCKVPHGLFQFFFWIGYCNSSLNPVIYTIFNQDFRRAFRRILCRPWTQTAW
# Protocol: as §1
# [6] = molecular target: T6, Serotonin 1B receptor (5-HT1BR) (Homo sapiens, UniProt P28222); assay: Radioligand binding, cell membrane homogenates
# T6 construct: expressed in transfected cells; host or cells: HEK-293
# Protocol: as §1
# [7] = molecular target: T7, Serotonin 2B receptor (5-HT2BR) (Homo sapiens, UniProt P41595); assay: Radioligand binding, cell membrane homogenates
# T7 construct: expressed in transfected cells; host or cells: HEK-293
# Protocol: as §1
# [8] = molecular target: T8, 5-HT2A receptor (5-HT2AR) (Homo sapiens, UniProt P28223); assay: Radioligand binding, cell membrane homogenates
# T8 construct: expressed in transfected cells; host or cells: HEK-293
# Protocol: as §1
# [9] = molecular target: T9, Alpha 1A adrenergic receptor (Homo sapiens, UniProt P35348); assay: Radioligand binding, cell membrane homogenates
# T9 construct: expressed in transfected cells; host or cells: HEK-293
# T9 sequence (P35348 1-466): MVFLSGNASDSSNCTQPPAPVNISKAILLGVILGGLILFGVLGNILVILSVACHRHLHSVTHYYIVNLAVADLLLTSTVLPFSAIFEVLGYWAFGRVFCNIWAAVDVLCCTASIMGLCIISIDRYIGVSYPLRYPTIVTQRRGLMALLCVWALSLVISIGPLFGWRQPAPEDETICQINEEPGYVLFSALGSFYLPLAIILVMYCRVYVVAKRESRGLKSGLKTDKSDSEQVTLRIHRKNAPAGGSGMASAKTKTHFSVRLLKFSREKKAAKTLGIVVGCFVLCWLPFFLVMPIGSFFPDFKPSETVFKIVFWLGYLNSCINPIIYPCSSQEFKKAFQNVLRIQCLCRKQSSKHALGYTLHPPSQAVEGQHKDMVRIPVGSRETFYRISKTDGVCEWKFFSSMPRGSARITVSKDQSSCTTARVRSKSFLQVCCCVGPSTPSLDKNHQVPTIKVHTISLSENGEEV
# Protocol: as §1
# [10] = molecular target: H1 histaminergic receptor (Homo sapiens, UniProt P35367); assay: BRET-based G protein dissociation assay; assay type: cell-based
# Chain of H1 histaminergic receptor (P35367 whole entry): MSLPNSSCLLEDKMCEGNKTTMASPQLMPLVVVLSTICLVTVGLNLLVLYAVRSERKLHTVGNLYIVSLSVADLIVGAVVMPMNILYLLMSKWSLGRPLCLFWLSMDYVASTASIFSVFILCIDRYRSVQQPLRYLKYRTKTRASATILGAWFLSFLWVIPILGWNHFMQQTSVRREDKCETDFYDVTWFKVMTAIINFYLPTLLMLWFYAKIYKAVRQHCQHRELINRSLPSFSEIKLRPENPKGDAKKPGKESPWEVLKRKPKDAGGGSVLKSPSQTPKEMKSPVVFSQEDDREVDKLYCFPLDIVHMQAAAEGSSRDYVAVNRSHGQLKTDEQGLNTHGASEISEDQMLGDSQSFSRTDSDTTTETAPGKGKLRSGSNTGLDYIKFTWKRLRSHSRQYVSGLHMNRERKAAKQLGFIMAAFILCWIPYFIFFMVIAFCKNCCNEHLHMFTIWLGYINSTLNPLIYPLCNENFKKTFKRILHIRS
# [11] = percentage of the reference ligand-induced maximal response, read-out: Emax
# Chain of 5-HT6 (P50406 whole entry): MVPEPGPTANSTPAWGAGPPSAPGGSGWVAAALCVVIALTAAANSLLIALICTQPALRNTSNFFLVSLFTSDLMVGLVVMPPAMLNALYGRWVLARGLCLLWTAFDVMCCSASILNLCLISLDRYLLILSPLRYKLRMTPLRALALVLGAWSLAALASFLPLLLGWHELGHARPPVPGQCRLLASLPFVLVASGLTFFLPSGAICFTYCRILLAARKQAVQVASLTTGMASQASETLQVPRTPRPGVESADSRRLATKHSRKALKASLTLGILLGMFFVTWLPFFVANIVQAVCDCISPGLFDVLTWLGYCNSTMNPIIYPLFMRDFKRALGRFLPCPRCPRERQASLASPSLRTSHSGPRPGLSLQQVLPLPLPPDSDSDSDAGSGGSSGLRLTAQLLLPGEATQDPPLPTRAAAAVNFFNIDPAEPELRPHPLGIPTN
compound,measurement,setting,value
"CCN(CC)C(=O)[C@@H]1C=C2c3cccc4[nH]cc(c34)C[C@H]2N(C)C1 [LSD, lysergic acid diethylamide, reference compound]",functional activity at 5-HT6,5-HT6,acts as a very potent partial agonist
same,functional activity at 5-HT5A,5-HT5A receptor,acts as a partial agonist
same,EC50,D1 dopamine receptor,108 nM
same,Emax,D1 dopamine receptor,41.3%
same,EC50,[1]; agonist mode,0.09 nM
same,Emax,[1]; [11],15%
same,EC50,"[2]; agonist mode, read-out: EC50",> 10000 nM
same,functional activity at 5-HT7,5-HT7 receptor,act as potent antagonist and inverse agonists
same,EC50,"[3]; agonist mode, read-out: EC50",211 nM
same,EC50,"D3 dopamine receptor; agonist mode, read-out: EC50",7.57 nM
same,Emax,D3 dopamine receptor; [11],74.5%
same,functional activity at 5-HT4,5-HT4 receptor,lack potent agonist activity at 5-HT4 receptor
same,β-Arrestin2 recruitment at the 5-HT2A receptor,5-HT2A receptor,strong recruiters of β-Arrestin2
"CCN(CC)C(=O)[C@@H]1C=C2c3cccc4[nH]c(Br)c(c34)C[C@H]2N(C)C1 [E559, (5R, 8R)-2-Bromo-9,10-didehydro-N,N-diethyl-6-methylergoline-8-carboxamide hemi-D-tartrate]",Ki,[4],88 nM
same,Ki,[5],27 nM
same,Ki,[6],77 nM
same,Ki,[7],7 nM
same,Ki,[8],2.2 nM
same,Ki,[9],59 nM
same,functional activity at 5-HT6,"5-HT6; FIG. 15, FIG. 16A/B",acts as a very potent partial agonist
same,functional activity at 5-HT5A,5-HT5A receptor; FIG. 15,antagonizes this receptor subtype
same,EC50,D1 dopamine receptor,0.12 nM
same,Kb,D1 dopamine receptor,32.9 nM
same,Emax,[1],17.4%
same,EC50,[2],5820 nM
same,functional activity at 5-HT7,"5-HT7 receptor; FIG. 15, FIG. 16A/B, listed as E559 polymorph",act as potent antagonist and inverse agonists; also recorded: exhibits significantly greater inverse agonism than LSD
same,EC50,[3],2.96 nM
same,EC50,D3 dopamine receptor,2.84 nM
same,Emax,D3 dopamine receptor,31.8%
same,Kb,D3 dopamine receptor,7.13 nM
same,EC50,[10],152 nM
same,Kb,[10],983 nM
same,functional activity at 5-HT4,5-HT4 receptor,lack potent agonist activity at 5-HT4 receptor
same,β-Arrestin2 recruitment at the 5-HT2A receptor,5-HT2A receptor; percentage of the 5-HT-induced maximal response,weak recruiter of β-Arrestin2
